According to ChEMBL document CHEMBL6109089, “Design, synthesis and optimization of Apcin analogues as Cdc20 inhibitors for triple-negative breast cancer therapy” (Eur J Med Chem, 2025):
Calls of active or inactive are those of the source. No cut-off for these calls is given here.

Key:
HeLa = test: Antiproliferative activity against human HeLa cells measured after 48 hrs by CCK-8 method
[1] = Antiproliferative activity against human MCF-10A cells assessed as inhibition of cell growth measured after 48 hrs by CCK-8 method; format: toxicity, cell-based
MDA-MB-231 [2] = test: Antiproliferative activity against human MDA-MB-231 cells assessed as reduction in number of cells in S phase at 1 to 4 uM measured after 48 hrs by EdU incorporation assay; format: functional, cell-based; conditions: dose 1-4 µM
MDA-MB-231 [3] = test: Induction of cell cycle arrest in human MDA-MB-231 cells assessed as increase in accumulation of cells at G2/M phase at 2 uM measured after 24 hrs by PI staining based flow cytometry analysis (reference value: 26.38%); format: functional
MDA-MB-231 [4] = test: Induction of apoptosis in human MDA-MB-231 cells assessed as early apoptotic cells at 8 uM incubated for 24 hrs by Annexin V-FITC/PI staining based flow cytometry analysis (reference value: 5.40%); format: functional
MDA-MB-231 [5] = test: Induction of apoptosis in human MDA-MB-231 cells assessed as early apoptotic cells at 2 uM incubated for 24 hrs by Annexin V-FITC/PI staining based flow cytometry analysis (reference value: 5.40%); format: functional
[6] = Toxicity in BALB/c nude mouse assessed as change in LDH level in heart serum at 15 to 30 mg/kg, ip administered daily for 18 days; format: organism-based; conditions: in vivo, 432 h, dose 15-30 mg/kg, time 18 day
MDA-MB-231 [7] = test: Induction of apoptosis in human MDA-MB-231 cells assessed as necrotic cells at 4 uM incubated for 24 hrs by Annexin V-FITC/PI staining based flow cytometry analysis (reference value: 0.033%); format: functional
[8] = Antiproliferative activity against rat H9c2 cells assessed as inhibition of cell growth measured after 48 hrs by CCK-8 method; format: toxicity, cell-based
MDA-MB-231 [9] = test: Antitumor activity against human MDA-MB-231 cells xenografted in BALB/c nude mouse model assessed as reduction in tumor volume at 15 to 30 mg/kg, ip administered daily for 18 days by vernier caliper method; format: functional, organism-based; conditions: dose 15-30 mg/kg, time 18.0 day
MDA-MB-231 [10] = test: Induction of apoptosis in human MDA-MB-231 cells assessed as viable cells at 4 uM incubated for 24 hrs by Annexin V-FITC/PI staining based flow cytometry analysis (reference value: 94.1%); format: functional; conditions: read-out: Activity
MDA-MB-231 [11] = test: Induction of apoptosis in human MDA-MB-231 cells assessed as early apoptotic cells at 4 uM incubated for 24 hrs by Annexin V-FITC/PI staining based flow cytometry analysis (reference value: 5.40%); format: functional
MDA-MB-231 [12] = test: Induction of DNA damage in human MDA-MB-231 cells assessed as increase in gamma-H2AX fluorescence intensity at 1 to 4 uM incubated for 48 hrs by immunofluorescence staining based analysis; format: functional, cell-based; conditions: dose 1-4 µM
MDA-MB-231 [13] = test: Antitumor activity against human MDA-MB-231 cells xenografted in BALB/c nude mouse model assessed as reduction in tumor growth at 15 mg/kg, ip administered daily for 18 days by vernier caliper method relative to control; format: functional; design: scale not given: the % may be the effect or the level left; conditions: time 18 day
MDA-MB-436 = test: cells; conditions: Homo sapiens, MDA-MB-436, 48 h
Description: Antiproliferative activity against human MDA-MB-436 cells assessed as inhibition of cell growth measured after 48 hrs by CCK-8 method

[14] = Toxicity in BALB/c nude mouse assessed as effect on body weight at 15 to 30 mg/kg, ip administered daily for 18 days; format: organism-based; conditions: in vivo, 432 h, dose 15-30 mg/kg, time 18 day
MDA-MB-231 [15] = test: Induction of apoptosis in human MDA-MB-231 cells assessed as late apoptotic cells at 2 uM incubated for 24 hrs by Annexin V-FITC/PI staining based flow cytometry analysis (reference value: 0.46%); format: functional
[16] = Toxicity in BALB/c nude mouse assessed as effect on kidney at 15 to 30 mg/kg, ip measured after 18 days; format: organism-based; conditions: in vivo, 432 h, dose 15-30 mg/kg, time 18 day
[17] = Toxicity in BALB/c nude mouse assessed as effect on liver at 15 to 30 mg/kg, ip measured after 18 days; format: organism-based; conditions: in vivo, 432 h, dose 15-30 mg/kg, time 18 day
MDA-MB-231 [18] = test: Induction of apoptosis in human MDA-MB-231 cells assessed as necrotic cells at 2 uM incubated for 24 hrs by Annexin V-FITC/PI staining based flow cytometry analysis (reference value: 0.033%); format: functional
MDA-MB-231 [19] = test: Induction of apoptosis in human MDA-MB-231 cells assessed as increase in cleaved PARP expression at 2 to 4 uM measured after 12 hrs by Western blot analysis; format: functional, cell-based; conditions: dose 2-4 µM
MDA-MB-231 [20] = test: Induction of apoptosis in human MDA-MB-231 cells assessed as late apoptotic cells at 8 uM incubated for 24 hrs by Annexin V-FITC/PI staining based flow cytometry analysis (reference value: 0.46%); format: functional
MDA-MB-231 [21] = test: Induction of apoptosis in human MDA-MB-231 cells assessed as late apoptotic cells at 4 uM incubated for 24 hrs by Annexin V-FITC/PI staining based flow cytometry analysis (reference value: 0.46%); format: functional
[22] = Toxicity in BALB/c nude mouse assessed as change in CK level in heart serum at 15 to 30 mg/kg, ip administered daily for 18 days; format: organism-based; conditions: in vivo, 432 h, dose 15-30 mg/kg, time 18 day
[23] = Toxicity in BALB/c nude mouse assessed as effect on heart at 15 to 30 mg/kg, ip measured after 18 days; format: organism-based; conditions: in vivo, 432 h, dose 15-30 mg/kg, time 18 day
MDA-MB-231 [24] = test: Antitumor activity against human MDA-MB-231 cells xenografted in BALB/c nude mouse model assessed as reduction in tumor weight at 15 to 30 mg/kg, ip administered daily for 18 days by vernier caliper method; format: functional, organism-based; conditions: dose 15-30 mg/kg, time 18.0 day
MDA-MB-231 [25] = test: Induction of DNA damage in human MDA-MB-231 cells assessed as increase in gamma-H2AX expression at 1 to 4 uM incubated for 24 hrs by Western blot analysis; format: functional, cell-based; conditions: dose 1-4 µM
MDA-MB-231 [26] = test: Induction of apoptosis in human MDA-MB-231 cells assessed as viable cells at 2 uM incubated for 24 hrs by Annexin V-FITC/PI staining based flow cytometry analysis (reference value: 94.1%); format: functional; conditions: read-out: Activity
[27] = Toxicity in BALB/c nude mouse assessed as change in CREA level in kidney serum at 15 to 30 mg/kg, ip administered daily for 18 days; format: organism-based; conditions: in vivo, 432 h, dose 15-30 mg/kg, time 18 day
[28] = Antiproliferative activity against human HK-2 cells assessed as inhibition of cell growth measured after 48 hrs by CCK-8 method; format: toxicity, cell-based
MDA-MB-231 [29] = test: Antitumor activity against human MDA-MB-231 cells xenografted in BALB/c nude mouse model assessed as reduction in tumor growth at 30 mg/kg, ip administered daily for 18 days by vernier caliper method relative to control; format: functional; design: scale not given: the % may be the effect or the level left; conditions: time 18 day
[30] = Toxicity in BALB/c nude mouse assessed as change in ALT level in liver serum at 15 to 30 mg/kg, ip administered daily for 18 days; format: organism-based; conditions: in vivo, 432 h, dose 15-30 mg/kg, time 18 day
MDA-MB-231 [31] = test: Induction of apoptosis in human MDA-MB-231 cells assessed as necrotic cells at 8 uM incubated for 24 hrs by Annexin V-FITC/PI staining based flow cytometry analysis (reference value: 0.033%); format: functional
[32] = Toxicity in BALB/c nude mouse assessed as change in AST level in liver serum at 15 to 30 mg/kg, ip administered daily for 18 days; format: organism-based; conditions: in vivo, 432 h, dose 15-30 mg/kg, time 18 day
MDA-MB-231 [33] = test: Induction of cell cycle arrest in human MDA-MB-231 cells assessed as increase in accumulation of cells at G2/M phase at 4 uM measured after 24 hrs by PI staining based flow cytometry analysis (reference value: 26.38%); format: functional
MDA-MB-231 [34] = test: cells; conditions: Homo sapiens, MDA-MB-231, 48 h
Description: Antiproliferative activity against human MDA-MB-231 cells assessed as inhibition of cell growth measured after 48 hrs by CCK-8 method

[35] = Toxicity in BALB/c nude mouse assessed as change in BUN level in kidney serum at 15 to 30 mg/kg, ip administered daily for 18 days; format: organism-based; conditions: in vivo, 432 h, dose 15-30 mg/kg, time 18 day
MDA-MB-231 [36] = test: Induction of apoptosis in human MDA-MB-231 cells assessed as viable cells at 8 uM incubated for 24 hrs by Annexin V-FITC/PI staining based flow cytometry analysis (reference value: 94.1%); format: functional; conditions: read-out: Activity
MDA-MB-231 [37] = test: Induction of cell cycle arrest in human MDA-MB-231 cells assessed as increase in accumulation of cells at G2/M phase at 8 uM measured after 24 hrs by PI staining based flow cytometry analysis (reference value: 26.38%); format: functional
MCF7 = test: cells; conditions: Homo sapiens, MCF7, 48 h
Description: Antiproliferative activity against human MCF7 cells assessed as inhibition of cell growth measured after 48 hrs by CCK-8 method

MDA-MB-231 [38] = test: Induction of cell cycle arrest in human MDA-MB-231 cells assessed as upregulation of phosphorylated histone H3 level at 2 to 4 uM measured after 12 hrs by Western blot analysis; format: functional, cell-based; conditions: dose 2-4 µM
MDA-MB-435 = test: Antiproliferative activity against human MDA-MB-435 cells measured after 3 days by CCK-8 method; conditions: MDA-MB-435, 72 h
MDA-MB-231 [39] = test: Antiproliferative activity against human MDA-MB-231 cells measured after 3 days by CCK-8 method; conditions: MDA-MB-231, 72 h

SMILES: Nc1nc(F)nc2c1ncn2C(NC(=O)NCCN1CCOCC1)C(Cl)(Cl)Cl (stereo not drawn)
- IC50 (HeLa): 60 nM

SMILES: O=C(NC(Nc1nc(Cl)cc(Nc2ccc(C(F)(F)F)cc2)n1)C(Cl)(Cl)Cl)OCCNC(=O)c1cnc(C(F)(F)F)s1 (stereo not drawn)
- IC50 at 48 h [1]: 23.9 µM
- Activity (MDA-MB-231 [2]): Active
- Activity (MDA-MB-231 [3]): 26.89%
- Activity (MDA-MB-231 [4]): 38.8%
- Activity (MDA-MB-231 [5]): 7.46%
- Activity [6]: Non-toxic
- Activity (MDA-MB-231 [7]): 0.62%
- IC50 at 48 h [8]: 19.4 µM
- Activity (MDA-MB-231 [9]): Active
- viability at 4 µM (MDA-MB-231 [10]): 85.4%
- Activity (MDA-MB-231 [11]): 13.4%
- Activity (MDA-MB-231 [12]): Active
- Activity (MDA-MB-231 [13]): 86%
- IC50 (MDA-MB-436): 3.86 µM
- Activity [14]: Non-toxic
- Activity (MDA-MB-231 [15]): 0.26%
- Activity [16]: Non-toxic
- Activity [17]: Non-toxic
- Activity (MDA-MB-231 [18]): 0.01%
- Activity (MDA-MB-231 [19]): Active
- Activity (MDA-MB-231 [20]): 7.61%
- Activity (MDA-MB-231 [21]): 0.62%
- Activity [22]: Non-toxic
- Activity [23]: Non-toxic
- Activity (MDA-MB-231 [24]): Active
- Activity (MDA-MB-231 [25]): Active
- viability at 2 µM (MDA-MB-231 [26]): 91.7%
- Activity [27]: Non-toxic
- IC50 at 48 h [28]: 23.4 µM
- Activity (MDA-MB-231 [29]): 90%
- Activity [30]: Non-toxic
- Activity (MDA-MB-231 [31]): 1.1%
- Activity [32]: Non-toxic
- Activity (MDA-MB-231 [33]): 34.91%
- IC50 (MDA-MB-231 [34]): 3.28 µM
- Activity [35]: Non-toxic
- viability at 8 µM (MDA-MB-231 [36]): 52.4%
- Activity (MDA-MB-231 [37]): 54.71%
- IC50 (MCF7): 13.8 µM
- Activity (MDA-MB-231 [38]): Active

SMILES: Cc1ncsc1-c1ccc(CNC(=O)[C@@H]2C[C@@H](O)CN2C(=O)[C@@H](NC(=O)CCOCCOCCOCCOCCOCCC(=O)NCCCOC(=O)NC(Nc2ncccn2)C(Cl)(Cl)Cl)C(C)(C)C)cc1 (stereo partly drawn)
- IC50 (MDA-MB-435): 2000 nM
- IC50 (MDA-MB-231 [39]): 2600 nM
